Test results taken from ChEMBL document CHEMBL1955850, “Syntheses of structurally-simplified and fluorescently-labeled neovibsanin derivatives and analysis of their neurite outgrowth activity in PC12 cells” (2012).
The source made the active and inactive calls. The calls are words filed in the database; no cut-off is given here.

Tests used:
PC-12 [1] = assay: Neuritogenic activity in rat PC12 cells assessed as potentiation of 10 ng/ml NGF-induced neurite outgrowth at 10 uM after 4 days NGF (reference value: 75.89 um); type: functional
PC-12 [2] = assay: Neuritogenic activity in rat PC12 cells assessed as potentiation of 10 ng/ml NGF-induced neurite outgrowth at 40 uM after 4 days (reference value: 75.89 um); type: functional
PC-12 [3] = assay: Neuritogenic activity in rat PC12 cells assessed as potentiation of 20 ng/ml NGF-induced neurite outgrowth at 10 uM; type: functional, cell-based
PC-12 [4] = assay: Neuritogenic activity in rat PC12 cells assessed as potentiation of 10 ng/ml NGF-induced neurite outgrowth at 1 uM after 4 days (reference value: 75.89 um); type: functional
PC-12 [5] = assay: Neuritogenic activity in rat PC12 cells assessed as potentiation of 10 ng/ml NGF-induced neurite outgrowth at 40 uM after 96 hrs; type: functional, cell-based
PC-12 [6] = assay: Neuritogenic activity in rat PC12 cells assessed as change in cell morphology at 40 uM up to 24 hrs in presence of 10 ng/ml NGF; type: functional, cell-based
PC-12 [7] = assay: Neuritogenic activity in rat PC12 cells assessed as appearance of short prominences at 40 uM after 48 hrs in presence of 10 ng/ml NGF; type: functional, cell-based
PC-12 [8] = assay: Neuritogenic activity in rat PC12 cells assessed as elongation of prominences at 40 uM after 72 hrs in presence of 10 ng/ml NGF; type: functional, cell-based

Structure (SMILES) | Activity (PC-12 [1]) [um] | Activity (PC-12 [2]) [um] | Activity (PC-12 [3]) | also measured
CCCO[C@@]1(C)C[C@@H]2OCC3=CCCC[C@]32O1 | 75.46 | 84.11 | – | –
CO[C@@]1(C)C[C@@H]2OCC3=CCCC[C@]32O1 | 101.6 | 122.4 | Active | Activity (PC-12 [4]): 91.58 um
CCO[C@@]1(C)C[C@@H]2OCC3=CCCC[C@]32O1 | 86.03 | 105.8 | – | –
C=CCOC1(C)C[C@@H]2OCC3=CCCC[C@]32O1 (stereo partly drawn) | – | – | inactive | –
CCCO[C@]1(C)C[C@@H]2OCC3=CCCC[C@]32O1 | 65.35 | 76.62 | – | –
CO[C@]1(C)C[C@@H]2OCC3=CCCC[C@]32O1 | 110.9 | 125.5 | Active | Activity (PC-12 [4]): 99.5 um
COC1(C)C[C@@H]2OCC3=CCC[C@@H](CCOC(=O)Cc4cc(=O)oc5cc(N(C)C)ccc45)[C@]32O1 (stereo partly drawn) | – | – | – | Activity (PC-12 [5]): Active; Activity (PC-12 [6]): inactive; Activity (PC-12 [7]): Active; Activity (PC-12 [8]): Active
CCCCO[C@]1(C)C[C@@H]2OCC3=CCCC[C@]32O1 | 55.82 | 72.88 | – | –
CCO[C@]1(C)C[C@@H]2OCC3=CCCC[C@]32O1 | 92.24 | 112.5 | – | –
CCCCO[C@@]1(C)C[C@@H]2OCC3=CCCC[C@]32O1 | 47.69 | 61.81 | – | –
CC1(OCc2ccccc2)C[C@@H]2OCC3=CCCC[C@]32O1 (stereo partly drawn) | – | – | inactive | –
CC(C)=CCOC1(C)C[C@@H]2OCC3=CCCC[C@]32O1 (stereo partly drawn) | – | – | inactive | –
CC1(OC/C=C/c2ccccc2)C[C@@H]2OCC3=CCCC[C@]32O1 (stereo partly drawn) | – | – | inactive | –
